For one assay, the target named is BACE1 (Homo sapiens, UniProt P56817). Put plainly: In vitro enzymatic BACE FRET (fluorescence resonance energy transfer) assay. It is filed as biochemical. Put shortly: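 Cleavage of a quenched peptide FRET substrate (50 nM) in 0.05 M acetate pH 4.2, 10% DMSO, 100 uM genapol, 1 h incubation. Reaction stopped by Tris neutralization; fluorescence read at excitation 488 nm / […].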

Assay [1] has as its system Cells stably expressing Amyloid Precursor Protein (APP). Kind of assay: In vitro BACE cell-based assay (HEK cell assay): Aβ40 in conditioned medium by sandwich ELISA. To be noted: Homo sapiens, HEK293, 24 h, Aβ40 in conditioned medium after 24 h incubation. As to the method: In Vitro BACE Cell-Based Assay:
The cell-based assay measures inhibition or reduction of Aβ40 in conditioned medium of test compound treated cells expressing amyloid precursor protein.
Cells stably expressing Amyloid Precursor Protein (APP) were plated at a density of 40K cells/well in 96 well plates (Costar). The cells were cultivated for 24 hours at 37° C. and 5% CO2 in DMEM supplemented with 10% FBS. The test compounds were then added to cells in 10-point dose response concentrations with the starting concentration being either 100 μM or 10 μM. The compounds were diluted from stock solutions in DMSO and the final DMSO concentration of the test compounds on cells was 0.1%. After 24 h of incubation with the test compounds the supernatant conditioned media was collected and the Aβ 40 levels were determined using a sandwich ELISA. The IC50 of the compound was calculated from the percent of control or percent inhibition of Aβ 40 as a function of the concentration of the test compound.
The sandwich ELISA to detect Aβ 40 was performed in 96 well microtiter plates, which were pre-treated with goat anti-rabbit IgG (Pierce). The capture and detecting antibody pair that were used to detect Aβ 40 from cell supernatants were affinity purified pAb40 (Biosource) and biotinylated 6E10 (Signet Labs Inc.), respectively. The optimal concentration for the pAb40 antibody was 3 μg/ml in Superblock/TBS (Pierce) that was supplemented with 0.05% Tween 20 (Sigma). Optimal concentration for the detection antibody 6E10-biotinylated was 0.5 μg/ml in Superblock/TBS (Pierce) that had been supplemented with 2% normal goat serum and 2% normal mouse serum.
Cellular supernatants were incubated with the capture antibody for 3 h at 4° C., followed by 3 wash steps in TBS-tween (0.05%). The detecting antibody incubation was for 2 h at 4° C., again followed by the wash steps as described previously. The final readout of the ELISA is Time-Resolved Fluorescence (counts per minute) using Delfia reagents Streptavidin-Europium and Enhancement solutions (Perkin Elmer) and the Victor 2 multilabel counter (Perkin Elmer).
Of the compounds tested, in-the cell-based assay, data for each of Examples 33-156 is provided in Table 1 and Examples 208-246 are provided in Table 4.
For orientation: ELISA stands for enzyme-linked immunosorbent assay.

SMILES strings stand for the structures.

Chain of BACE1 (P56817 46-501, species assumed): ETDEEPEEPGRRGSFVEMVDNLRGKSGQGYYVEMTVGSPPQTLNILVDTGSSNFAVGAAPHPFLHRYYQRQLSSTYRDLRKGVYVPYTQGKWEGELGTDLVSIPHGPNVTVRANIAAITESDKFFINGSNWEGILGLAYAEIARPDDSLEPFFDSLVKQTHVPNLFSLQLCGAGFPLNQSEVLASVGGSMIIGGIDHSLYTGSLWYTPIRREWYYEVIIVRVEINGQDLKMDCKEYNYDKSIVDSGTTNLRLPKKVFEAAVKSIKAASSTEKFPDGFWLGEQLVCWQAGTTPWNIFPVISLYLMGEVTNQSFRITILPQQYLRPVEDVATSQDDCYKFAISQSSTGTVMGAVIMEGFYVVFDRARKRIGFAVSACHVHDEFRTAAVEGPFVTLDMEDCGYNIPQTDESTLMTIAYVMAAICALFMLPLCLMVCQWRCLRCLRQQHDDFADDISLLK

Turning to `C=CC[C@H](NC(=O)c1cccnc1F)[C@H](O)CN[C@H]1CC2(CCC2)Oc2ncc(CC(C)(C)C)cc21` [Example 67, N-((1S)-1-((1R)-2-(((4′S)-6′-(2,2-dimethylpropyl)-3′,4′-dihydrospiro[cyclobutane-1,2′-pyrano[2,3-b]pyridin]-4′-yl)amino)-1-hydroxyethyl)-3-buten-1-yl)-2-fluoro-3-pyridinecarboxamide], the IC50 came to 0.199 µM at BACE1 and 0.517 µM in assay [1].
In the same order, the values of `C=CC[C@H](NC(=O)c1cncnc1)[C@H](O)CN[C@H]1CC2(CCC2)Oc2ncc(CC(C)(C)C)cc21` [Example 68, N-((1S)-1-((1R)-2-(((4′S)-6′-(2,2-dimethylpropyl)-3′,4′-dihydrospiro[cyclobutane-1,2′-pyrano[2,3-b]pyridin]-4′-yl)amino)-1-hydroxyethyl)-3-buten-1-yl)-5-pyrimidinecarboxamide] are 0.271 µM and 0.709 µM.
In the same order, the values of `C=CC[C@H](NC(=O)c1cccc(F)c1F)[C@H](O)CN[C@H]1CC2(CCC2)Oc2ncc(CC(C)(C)C)cc21` [Example 69, N-((1S)-1-((1R)-2-(((4′S)-6′-(2,2-dimethylpropyl)-3′,4′-dihydrospiro[cyclobutane-1,2′-pyrano[2,3-b]pyridin]-4′-yl)amino)-1-hydroxyethyl)-3-buten-1-yl)-2,3-difluorobenzamide] are 0.155 µM and 0.121 µM.
Consider `C=CC[C@H](NC(=O)c1ccc(F)cc1F)[C@H](O)CN[C@H]1CC2(CCC2)Oc2ncc(CC(C)(C)C)cc21` [Example 70, N-((1S)-1-((1R)-2-(((4′S)-6′-(2,2-dimethylpropyl)-3′,4′-dihydrospiro[cyclobutane-1,2′-pyrano[2,3-b]pyridin]-4′-yl)amino)-1-hydroxyethyl)-3-buten-1-yl)-2,4-difluorobenzamide], for which the values for the IC50 (at BACE1; in assay [1]) were 0.264 µM and 0.526 µM, respectively.
For `C=CC[C@H](NC(=O)c1cc(F)ccc1F)[C@H](O)CN[C@H]1CC2(CCC2)Oc2ncc(CC(C)(C)C)cc21` [Example 71, N-((1S)-1-((1R)-2-(((4′S)-6′-(2,2-dimethylpropyl)-3′,4′-dihydrospiro[cyclobutane-1,2′-pyrano[2,3-b]pyridin]-4′-yl)amino)-1-hydroxyethyl)-3-buten-1-yl)-2,5-difluorobenzamide], the IC50 on BACE1 turned out to be 0.212 µM; in assay [1], 0.998 µM.
On the same counts, the results for `C=CC[C@H](NC(=O)c1c(F)cccc1F)[C@H](O)CN[C@H]1CC2(CCC2)Oc2ncc(CC(C)(C)C)cc21` [Example 72, N-((1S)-1-((1R)-2-(((4′S)-6′-(2,2-dimethylpropyl)-3′,4′-dihydrospiro[cyclobutane-1,2′-pyrano[2,3-b]pyridin]-4′-yl)amino)-1-hydroxyethyl)-3-buten-1-yl)-2,6-difluorobenzamide] are 0.276 µM and 3.57 µM.
On the same counts, the results for `C=CC[C@H](NC(=O)c1ccc(F)c(F)c1F)[C@H](O)CN[C@H]1CC2(CCC2)Oc2ncc(CC(C)(C)C)cc21` [Example 73, N-((1S)-1-((1R)-2-(((4′S)-6′-(2,2-dimethylpropyl)-3′,4′-dihydrospiro[cyclobutane-1,2′-pyrano[2,3-b]pyridin]-4′-yl)amino)-1-hydroxyethyl)-3-buten-1-yl)-2,3,4-trifluorobenzamide] are 0.483 µM and 2.65 µM.
With `C=CC[C@H](NC(=O)c1cc(F)cc(F)c1F)[C@H](O)CN[C@H]1CC2(CCC2)Oc2ncc(CC(C)(C)C)cc21` [Example 74, N-((1S)-1-((1R)-2-(((4′S)-6′-(2,2-dimethylpropyl)-3′,4′-dihydrospiro[cyclobutane-1,2′-pyrano[2,3-b]pyridin]-4′-yl)amino)-1-hydroxyethyl)-3-buten-1-yl)-2,3,5-trifluorobenzamide], the figures for the IC50 (at BACE1; in assay [1]) were 0.305 µM and 1.62 µM, respectively.
Take `C=CC[C@H](NC(=O)c1c(F)ccc(F)c1F)[C@H](O)CN[C@H]1CC2(CCC2)Oc2ncc(CC(C)(C)C)cc21` [Example 75, N-((1S)-1-((1R)-2-(((4′S)-6′-(2,2-dimethylpropyl)-3′,4′-dihydrospiro[cyclobutane-1,2′-pyrano[2,3-b]pyridin]-4′-yl)amino)-1-hydroxyethyl)-3-buten-1-yl)-2,3,6-trifluorobenzamide]: the IC50 at BACE1 came out at 0.253 µM; in assay [1], 0.366 µM.
On to `C=CC[C@H](NC(=O)c1cnccc1OC)[C@H](O)CN[C@H]1CC2(CCC2)Oc2ncc(CC(C)(C)C)cc21` [Example 76, N-((1S)-1-((1R)-2-(((4′S)-6′-(2,2-dimethylpropyl)-3′,4′-dihydrospiro[cyclobutane-1,2′-pyrano[2,3-b]pyridin]-4′-yl)amino)-1-hydroxyethyl)-3-buten-1-yl)-4-(methyloxy)-3-pyridinecarboxamide], for which the concentration for half-maximal inhibition (IC50) at BACE1 is 0.675 µM; in assay [1], 0.802 µM.
In the same order, the values of `C=CC[C@H](NC(=O)c1cc(F)c(F)cc1F)[C@H](O)CN[C@H]1CC2(CCC2)Oc2ncc(CC(C)(C)C)cc21` [Example 77, N-((1S)-1-((1R)-2-(((4′S)-6′-(2,2-dimethylpropyl)-3′,4′-dihydrospiro[cyclobutane-1,2′-pyrano[2,3-b]pyridin]-4′-yl)amino)-1-hydroxyethyl)-3-buten-1-yl)-2,4,5-trifluorobenzamide] are 0.44 µM and 3.31 µM.
On to `C=CC[C@H](NC(=O)c1c(F)cc(F)cc1F)[C@H](O)CN[C@H]1CC2(CCC2)Oc2ncc(CC(C)(C)C)cc21` [Example 78, N-((1S)-1-((1R)-2-(((4′S)-6′-(2,2-dimethylpropyl)-3′,4′-dihydrospiro[cyclobutane-1,2′-pyrano[2,3-b]pyridin]-4′-yl)amino)-1-hydroxyethyl)-3-buten-1-yl)-2,4,6-trifluorobenzamide], for which the IC50 came out at 0.641 µM on BACE1 and 3 µM in assay [1].
Turning to `C=CC[C@H](NC(=O)c1cc(F)c(F)c(F)c1)[C@H](O)CN[C@H]1CC2(CCC2)Oc2ncc(CC(C)(C)C)cc21` [Example 79, N-((1S)-1-((1R)-2-(((4′S)-6′-(2,2-dimethylpropyl)-3′,4′-dihydrospiro[cyclobutane-1,2′-pyrano[2,3-b]pyridin]-4′-yl)amino)-1-hydroxyethyl)-3-buten-1-yl)-3,4,5-trifluorobenzamide], the figures for the IC50 (at BACE1; in assay [1]) were 0.465 µM and 1.97 µM, respectively.
As for `C=CC[C@H](NC(=O)COC)[C@H](O)CN[C@H]1CC2(CCC2)Oc2ncc(CC(C)(C)CF)cc21` [Example 80, N-((1S)-1-((1R)-2-(((4′S)-6′-(3-fluoro-2,2-dimethylpropyl)-3′,4′-dihydrospiro[cyclobutane-1,2′-pyrano[2,3-b]pyridin]-4′-yl)amino)-1-hydroxyethyl)-3-buten-1-yl)-2-(methyloxy)acetamide], the IC50 came to 0.084 µM at BACE1 and 0.249 µM in assay [1].
`C=CC[C@H](NC(=O)COC)[C@H](O)CN[C@H]1CC2(CCC2)Oc2ncc([C@H](F)C(C)(C)C)cc21` [Example 82, N-((1S)-1-((1R)-2-(((4′S)-6′-((1R)-1-fluoro-2,2-dimethylpropyl)-3′,4′-dihydrospiro[cyclobutane-1,2′-pyrano[2,3-b]pyridin]-4′-yl)amino)-1-hydroxyethyl)-3-buten-1-yl)-2-(methyloxy)acetamide]: the IC50 is 0.069 µM at BACE1 and 0.216 µM in assay [1].

Usually IC50 stands for the concentration that gives 50% inhibition.

Source of the values: patent US8633315B2, “Substituted hydroxyethyl amine compounds as beta-secretase modulators and methods of use” (Amgen Inc., priority 2007, dated 2014).
